The text below walks through data of US7662851B2, “Use of specific cyklolignans” (Axelar AB, priority 2001, dated 2010).

Experiment [1] concerns the target T1, IGF-1R (Homo sapiens, UniProt P08069). Put plainly: IGF-1R phosphorylation in HaCaT cells (psoriasis model). In kind it is cell-based. More on the design: expressed in transfected cells; host or cells: P6 cell line (murine fibroblasts overexpressing human IGF-1R); receptor captured on plates with an antibody to the beta subunit. To be noted: 0.05 μM, 1 h, control 100. The method, then:
(§1) Keratinocytes (HaCaT cells) were provided by and tested in collaboration with Professor Mona Bäckdahl, Department of Dermatology, Karolinska Hospital, Stockholm, Sweden. The HaCaT cell line is a spontaneously immortalized human keratinocyte cell line (Boukamp P, et al., J Cell Biol 106: 761-771, 1988), which is frequently used as an experimental model for psoriasis (Wraight, C. J., et al. Nat Biotechnol 18: 521-526, 2000.) HaCaT cells were cultured in Dulbecco's Modified Eagle's Medium containing 10% fetal bovine serum, glutamine, benzylpenicillin and streptomycin.
Cells were cultured to subconfluency in 6-cm plates, and then fresh medium containing 10% FBS and the desired compounds were added for 1 h. The cells were then lyzed and subjected to immunoprecipitation using specific antibodies. […] After detection the films were scanned for quantification.
HaCaT cells, which are immortalized human keratinocytes and represent a model cell line for psoriasis, were seeded in 6-cm dishes or in 96-well plates (medium volume in a well was 100 μl), at a concentration of 7,000 cells/cm^2 in Dulbecco's Modified Eagle's Medium containing 10% fetal bovine serum. […] After 1 h incubation the cells in the 6-cm dishes were harvested for assay and quantification of IGF-1R phosphorylation as described in Experiment 1. […]

In a further experiment the test system is FM55 melanoma cell line. The experiment can be described thus: Cell viability (XTT), FM55. In kind it is cell-based. To be noted: read-out: EC50 for cell viability. The method, then: (§2) Cell proliferation kit II (Roche Inc.) is based on colorimetric change of the yellow tetrazolium salt XTT in orange formazan dye by the respiratory chain of viable cells (Roehm, N W, et al., J Immunol Methods 142:257-265, 1991). Cells seeded at a concentration of 5000/well in 100 μl medium in a 96-well plate were treated with different drugs in the given concentration. After 24 or 48 h the cells were incubated, according to the manufacturer's protocol, with XTT labelling mixture. After 4 h the formazan dye is quantified using a scanning multiwell spectrophotometer with a 495-nm filter. The absorbance is directly correlated with the number of viable cells. The standard absorbance curve was drawn by means of untreated cells seeded at a concentration of from 1000 to 10 000 cells/well with an increasing rate of 1000 cells/well. All standards and experiments were performed in triplicates.
(§3) 12 different types of cell lines were seeded in 96-well plates (medium volume in a well was 100 μl), at a concentration of 10,000 cells/cm^2 in Minimal Essential Medium supplemented with fetal calf serum. When the cells had reached a concentration of 65,000 cells/cm^2, they were treated with different doses of podophyllotoxin and picropodophyllin for 48 h. Cell viability was then assayed (see above). […]

Experiment [2] deals with T1, IGF-1R. Put plainly: IGF-1R tyrosine autophosphorylation, sandwich ELISA, cell-free. In kind it is biochemical. Details: expressed in transfected cells; host or cells: P6 cell line (murine fibroblasts overexpressing human IGF-1R); receptor captured on plates with an antibody to the beta subunit. The method, then: IGF-1R tyrosine autophosphorylation was analysed by a sandwich ELISA assay. Briefly, 96-well plates (Immunolon, Nunc) were coated overnight at 4° C. with 1 μg/well of the monoclonal antibody Ab-5 (LabVision) to the IGF-1R beta subunit. The plates were blocked with 1% BSA in PBS Tween for 1 h, then 80 µg/well of total protein lysate from the P6 cell line was added. As a negative control was used total protein lysate from the R-cell line. The investigated compounds were added in tyrosine kinase buffer without ATP at room temperature for 30 min, prior to kinase activation with ATP. Kinase assay was performed using the Sigma kit. After spectrophotometry the IC50 values of inhibitors were determined using the Regression function of Statistica program.
To investigate whether PPP interferes with the tyrosine autophosphorylation at the ATP level or at the substrate level (i.e., the tyrosine kinase domain of the IGF-1R […]), various concentrations of ATP (19-300 μM) were added to the reaction buffer during the assay.

Experiment [3] concerns SK-MEL-5 melanoma cell line. Put plainly: Cell viability (XTT), SK-MEL-5. The experiment is classed as cell-based. How it is done:
as §2, §3
Background: Formazan colour is commonly taken as a measure of viable cells.

The test system of the next experiment is HaCaT cells. Put plainly: Cell viability of HaCaT cells (psoriasis model). To be noted: Homo sapiens, 48 h, read-out: Cell viability. The experiment is classed as cell-based. The method, then:
as §1
as §2, with “All standards and experiments were performed in triplicates.” left out

The target of experiment [4] is T2, epidermal growth factor receptor (EGFR) (Homo sapiens, UniProt P00533).
T2 construct: endogenous in cells; host or cells: FM55 melanoma cells
The experiment can be described thus: Tyrosine phosphorylation of EGFR in intact FM55 melanoma cells. In kind it is cell-based. To be noted: 0.05 μM, 1 h. How it is done:
Cells were cultured to subconfluency in 6-cm plates, and then fresh medium containing 10% FBS and the desired compounds were added for 1 h. The cells were then lyzed and subjected to immunoprecipitation using specific antibodies. Immunoprecipitates were resolved by sodium dodecyl sulphate polyacrylamide gel electrophoresis (SDS-PAGE) and transferred to nitro-cellulose membranes and incubated with anti-phosphotyrosine antibody. Antibodies to actin (in cell extract) or IGF-1R beta subunit were used as loading controls. After detection the films were scanned for quantification.
FM55 melanoma cells were cultured in the same way as described in Experiment 1. When reaching a density of 65,000 cells/cm^2 in the dishes, they were treated for 1 h with 0 (control) and 0.05 μM of picropodophyllin and podophyllotoxin, respectively. The cells were then isolated and subjected to immunoprecipitation of the IGF-1R, fibroblast growth factor receptor (FGFR), platelet-derived growth factor receptor (PDGFR), epidermal growth factor receptor (EGFR), insulin receptor (IR) and insulin substrate-1 (IRS-1) using antibodies to respective molecules. IRS-1 is a substrate of IGF-1R, and therefore its phosphorylation is dependent on phosphorylated IGF-1R. Gelelectrophoresis, Western blotting and quantification of the different signals were performed as described above.

Like-named read-outs stand apart in the source and are kept apart here.

T1 sequence (P08069 31-1367): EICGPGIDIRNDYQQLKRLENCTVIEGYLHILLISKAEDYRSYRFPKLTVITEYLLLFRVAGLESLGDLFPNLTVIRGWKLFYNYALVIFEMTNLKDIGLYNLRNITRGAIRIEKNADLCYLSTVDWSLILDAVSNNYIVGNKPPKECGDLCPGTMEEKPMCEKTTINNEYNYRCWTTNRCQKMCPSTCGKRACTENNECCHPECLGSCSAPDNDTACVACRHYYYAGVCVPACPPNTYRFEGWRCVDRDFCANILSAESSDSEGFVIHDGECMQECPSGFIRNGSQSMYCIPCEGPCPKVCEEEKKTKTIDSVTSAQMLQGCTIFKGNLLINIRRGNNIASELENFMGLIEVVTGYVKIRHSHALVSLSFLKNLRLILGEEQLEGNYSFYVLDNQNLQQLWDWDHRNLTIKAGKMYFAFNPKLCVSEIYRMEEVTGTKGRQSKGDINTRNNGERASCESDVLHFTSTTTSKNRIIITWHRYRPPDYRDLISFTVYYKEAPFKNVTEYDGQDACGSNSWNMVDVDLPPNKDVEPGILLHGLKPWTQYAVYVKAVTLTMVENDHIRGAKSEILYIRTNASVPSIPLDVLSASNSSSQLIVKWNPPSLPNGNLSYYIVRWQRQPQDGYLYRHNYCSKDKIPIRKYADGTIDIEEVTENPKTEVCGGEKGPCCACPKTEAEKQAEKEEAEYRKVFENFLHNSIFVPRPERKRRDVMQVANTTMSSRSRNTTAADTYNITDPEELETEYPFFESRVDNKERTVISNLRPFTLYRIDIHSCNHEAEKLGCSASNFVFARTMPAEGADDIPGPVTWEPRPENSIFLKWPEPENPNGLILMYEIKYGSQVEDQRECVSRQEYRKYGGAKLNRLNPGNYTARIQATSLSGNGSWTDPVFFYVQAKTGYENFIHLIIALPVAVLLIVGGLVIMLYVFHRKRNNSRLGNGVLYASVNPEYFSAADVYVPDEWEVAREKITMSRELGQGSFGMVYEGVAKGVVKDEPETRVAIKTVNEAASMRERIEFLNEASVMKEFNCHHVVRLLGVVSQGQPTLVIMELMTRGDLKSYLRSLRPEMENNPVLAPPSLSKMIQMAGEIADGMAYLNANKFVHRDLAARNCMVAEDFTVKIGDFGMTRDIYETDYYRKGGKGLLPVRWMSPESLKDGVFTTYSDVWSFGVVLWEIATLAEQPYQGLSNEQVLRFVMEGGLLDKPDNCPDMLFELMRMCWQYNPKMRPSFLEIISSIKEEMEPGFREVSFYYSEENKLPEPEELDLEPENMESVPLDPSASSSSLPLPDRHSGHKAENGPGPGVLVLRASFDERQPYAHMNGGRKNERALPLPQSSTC
T2 sequence (P00533 25-1210): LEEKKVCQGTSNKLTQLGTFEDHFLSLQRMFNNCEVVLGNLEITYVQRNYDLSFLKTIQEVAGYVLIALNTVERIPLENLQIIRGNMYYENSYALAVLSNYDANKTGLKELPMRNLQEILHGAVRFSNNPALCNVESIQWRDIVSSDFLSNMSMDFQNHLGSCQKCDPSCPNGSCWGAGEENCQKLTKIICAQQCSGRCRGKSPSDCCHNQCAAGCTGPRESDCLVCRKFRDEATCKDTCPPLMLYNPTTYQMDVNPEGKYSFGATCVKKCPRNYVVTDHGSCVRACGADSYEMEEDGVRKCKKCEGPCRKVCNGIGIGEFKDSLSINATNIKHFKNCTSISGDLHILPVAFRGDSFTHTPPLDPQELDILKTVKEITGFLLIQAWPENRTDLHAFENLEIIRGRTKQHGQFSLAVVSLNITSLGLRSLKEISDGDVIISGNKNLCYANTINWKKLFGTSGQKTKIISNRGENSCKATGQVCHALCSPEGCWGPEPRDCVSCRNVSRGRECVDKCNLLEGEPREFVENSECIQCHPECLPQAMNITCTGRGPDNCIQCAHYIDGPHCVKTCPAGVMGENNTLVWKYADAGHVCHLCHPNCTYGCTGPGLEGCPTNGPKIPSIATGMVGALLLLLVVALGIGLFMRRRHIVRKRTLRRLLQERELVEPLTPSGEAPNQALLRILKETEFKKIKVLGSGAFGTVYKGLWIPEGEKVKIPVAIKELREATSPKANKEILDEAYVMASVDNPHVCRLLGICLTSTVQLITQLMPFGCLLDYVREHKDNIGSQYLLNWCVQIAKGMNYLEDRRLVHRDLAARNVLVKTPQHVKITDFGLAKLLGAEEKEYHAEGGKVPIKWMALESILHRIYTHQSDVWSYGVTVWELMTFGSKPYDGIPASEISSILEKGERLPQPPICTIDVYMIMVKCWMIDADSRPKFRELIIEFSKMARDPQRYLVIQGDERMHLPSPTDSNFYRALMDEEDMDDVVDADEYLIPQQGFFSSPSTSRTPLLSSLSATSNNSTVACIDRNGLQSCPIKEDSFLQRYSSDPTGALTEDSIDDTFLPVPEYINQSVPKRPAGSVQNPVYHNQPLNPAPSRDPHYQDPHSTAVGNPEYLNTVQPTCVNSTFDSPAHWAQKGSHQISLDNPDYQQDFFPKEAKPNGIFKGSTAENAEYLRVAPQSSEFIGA

One may read the EC50 as the concentration that produces a half-maximal response. A word on the viability: it is the share of living cells, or the viability signal relative to a control. At IGF-1R [1], `COc1cc([C@@H]2c3cc4c(cc3[C@H](O)[C@H]3COC(=O)[C@@H]23)OCO4)cc(OC)c1OC` [Picropodophyllin, picropodophyllin] registered an IGF-1R phosphorylation of 35. Moreover, the EC50 is 70 nM in the experiment on FM55 melanoma cell line (FM55, 48 h) and 50 nM in experiment [3] (Homo sapiens, SK-MEL-5, 48 h; read-out: EC50 for cell viability). The IC50 was 1 to 2 nM at IGF-1R [2] (cell-free, ATP 19-300 μM in reaction buffer, read-out: IC50, autophosphorylation of IGF-1R at various ATP concentrations) and about 1 nM on IGF-1R [2] (cell-free, FIG. 4, read-out: IC50, autophosphorylation of IGF-1R). Moreover, in the experiment with HaCaT cells (HaCaT cells, 0.05 μM, control 100), the viability at 0.05 µM is 35%. In addition, the “Level of phosphorylation in intact cells, substrate EGFR” value in experiment [4] is given as 106 % OD.

With `COc1cc([C@@H]2c3cc4c(cc3[C@H](O)[C@H]3COC(=O)[C@H]23)OCO4)cc(OC)c1OC` [Podophyllotoxin, podophyllotoxin], the IGF-1R phosphorylation at IGF-1R [1] worked out at 45. Moreover, the EC50 was 40 nM with FM55 melanoma cell line (48 h) and 20 nM in experiment [3] (Homo sapiens, SK-MEL-5, 48 h, read-out: EC50 for cell viability). In addition, the IC50 at IGF-1R [2] (in vitro, stated in description, read-out: IC50 for IGF-1R-inhibition when tested in vitro) is 1 nM. For the same compound, the viability at 0.05 µM in the experiment with HaCaT cells (HaCaT) came out at 30%. For the same compound, the “Level of phosphorylation in intact cells, substrate EGFR” value in experiment [4] was determined as 107 % OD.
